Laboratory results published in patent US12655160B2, “KRAS G12D inhibitors” (Mirati Therapeutics, Inc., priority 2020, dated 2026).

Biological target: KRas G12D (Homo sapiens, UniProt P01116, G12D)
Experiment: KRas G12D Binding Assay (TR-FRET displacement of labeled tracer)
Set-up: corresponding to amino acids 1:169, produced at Array BioPharma Inc; biotin (biotinylated)
Conditions: TR-FRET displacement of Cy5 labelled tracer, Biotinylated GDP-loaded KRAS G12D (amino acids 1:169), 60 minute incubation at 22° C.
Experimental: This Example illustrates that exemplary compounds of the present invention bind to KRas G12D and are capable of displacing a labeled tracer ligand occupying the KRas G12D binding site. The ability of a compound to bind to KRAS G12D was measured using a TR-FRET displacement assay. Biotinylated GDP-loaded recombinant human KRAS G12D (corresponding to amino acids 1:169, produced at Array BioPharma Inc.) was incubated with a custom-made Cy5 labelled tracer, europium labelled streptavidin and compound (2% DMSO final) in buffer (50 mM HEPES [pH 7.5], 5 mM MgCl2, 0.005% Tween-20 & 1 mM DTT). After a 60 minute incubation at 22° C., the reaction was measured using a PerkinElmer EnVision multimode plate reader via TR-FRET dual wavelength detection, and the percent of control (POC) calculated using a ratiometric emission factor. […] The POC values were fit to a 4-parameter logistic curve and the IC50 value was determined as the concentration where the curve crosses 50 POC.

Sequence of KRas G12D (P01116 1-169 isoform P01116-2 G12D): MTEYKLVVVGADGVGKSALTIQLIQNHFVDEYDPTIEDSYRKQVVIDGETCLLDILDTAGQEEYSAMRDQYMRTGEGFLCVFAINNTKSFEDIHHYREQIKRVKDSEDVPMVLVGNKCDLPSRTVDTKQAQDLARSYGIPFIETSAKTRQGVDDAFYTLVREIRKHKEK

Row | IC50 | SMILES
1 | 0.954 µM | C=C(C)c1cccc2cccc(-c3ncc4c(NCC5(N(C)C)CCC5)nc(OCC56CCCN5C[C@H](F)C6)nc4c3F)c12 (mixture of isomers) [Example 24, N-((1-(dimethylamino)cyclobutyl)methyl)-8-fluoro-2-(((2S,7aR)-2-fluorotetrahydro-1H-pyrrolizin-7a(5H)-yl)methoxy)-7-(8-(prop-1-en-2-yl)naphthalen-1-yl)pyrido[4,3-d]pyrimidin-4-amine]
2 | 1.64 µM | CC(C)c1cccc2cccc(-c3ncc4c(NCC5(N(C)C)CCC5)nc(OCC56CCCN5C[C@H](F)C6)nc4c3F)c12 (mixture of isomers) [Example 25, N-((1-(dimethylamino)cyclobutyl)methyl)-8-fluoro-2-(((2S,7aR)-2-fluorotetrahydro-1H-pyrrolizin-7a(5H)-yl)methoxy)-7-(8-isopropylnaphthalen-1-yl)pyrido[4,3-d]pyrimidin-4-amine]
3 | 0.344 µM | CN(C)C1(CNc2nc(OCC34CCCN3C[C@H](F)C4)nc3c(F)c(-c4cccc5cccc(C6CC6)c45)ncc23)CCC1 (mixture of isomers) [Example 26, 7-(8-cyclopropylnaphthalen-1-yl)-N-((1-(dimethylamino)cyclobutyl)methyl)-8-fluoro-2-(((2S,7aR)-2-fluorotetrahydro-1H-pyrrolizin-7a(5H)-yl)methoxy)pyrido[4,3-d]pyrimidin-4-amine]
4 | 0.521 µM | CN(C)CCNc1nc(OC[C@@]23CCCN2C[C@H](F)C3)nc2c(F)c(-c3cc(O)cc4ccccc34)ncc12 (racemic) [Example 39, 4-(4-((2-(dimethylamino)ethyl)amino)-8-fluoro-2-(((2S,7aR)-2-fluorotetrahydro-1H-pyrrolizin-7a(5H)-yl)methoxy)pyrido[4,3-d]pyrimidin-7-yl)naphthalen-2-ol bis(2,2,2-trifluoroacetate)]
5 | 0.269 µM | Cc1cccc2cccc(-c3ncc4c(NCC5(N(C)C)CCC5)nc(OC[C@@]56CCCN5C[C@H](F)C6)nc4c3F)c12 [Example 2, N-((1-(dimethylamino)cyclobutyl)methyl)-8-fluoro-2-(((2R,7aS)-2-fluorotetrahydro-1H-pyrrolizin-7a(5H)-yl)methoxy)-7-(8-methylnaphthalen-1-yl)pyrido[4,3-d]pyrimidin-4-amine bis(2,2,2-trifluoroacetate)]
6 | 0.239 µM | CN(C)C1(CNc2nc(OC[C@@]34CCCN3C[C@H](F)C4)nc3c(F)c(-c4cccc5cccc(C(F)(F)F)c45)ncc23)CCC1 [Example 3, N-((1-(dimethylamino)cyclobutyl)methyl)-8-fluoro-2-(((2R,7aS)-2-fluorotetrahydro-1H-pyrrolizin-7a(5H)-yl)methoxy)-7-(8-(trifluoromethyl)naphthalen-1-yl)pyrido[4,3-d]pyrimidin-4-amine]
7 | 0.958 µM | Oc1cc(-c2ncc3c(NCC4(N5CCOCC5)CCC4)nc(OC[C@@]45CCCN4C[C@H](F)C5)nc3c2F)c2ccccc2c1 [Example 4, 4-(8-fluoro-2-(((2R,7aS)-2-fluorotetrahydro-1H-pyrrolizin-7a(5H)-yl)methoxy)-4-(((1-morpholinocyclobutyl)methyl)amino)pyrido[4,3-d]pyrimidin-7-yl)naphthalen-2-ol]
8 | 2.26 µM | CN1CCC[C@H]1COc1nc(NC2C3CNCC32)c2cnc(-c3cc(O)cc4ccccc34)c(F)c2n1 (stereo partly drawn) [Example 5, 4-(4-((3-azabicyclo[3.1.0]hexan-6-yl)amino)-8-fluoro-2-(((S)-1-methylpyrrolidin-2-yl)methoxy)pyrido[4,3-d]pyrimidin-7-yl)naphthalen-2-ol bis(2,2,2-trifluoroacetate)]
9 | 0.117 µM | CN(C)C1(CNc2nc(OC[C@@]34CCCN3C[C@H](F)C4)nc3c(F)c(-c4cc(O)cc5ccccc45)ncc23)CC1 [Example 6, 4-(4-(((1-(dimethylamino)cyclopropyl)methyl)amino)-8-fluoro-2-(((2R,7aS)-2-fluorotetrahydro-1H-pyrrolizin-7a(5H)-yl)methoxy)pyrido[4,3-d]pyrimidin-7-yl)naphthalen-2-bis(2,2,2-trifluoroacetate)]
10 | 2.17 µM | CC(C)c1ccccc1-c1ncc2c(NCC3(N(C)C)CCC3)nc(OCC34CCCN3CCC4)nc2c1F [Example 9, N-((1-(dimethylamino)cyclobutyl)methyl)-8-fluoro-7-(2-isopropylphenyl)-2-((tetrahydro-1H-pyrrolizin-7a(5H)-yl)methoxy)pyrido[4,3-d]pyrimidin-4-amine bis(2,2,2-trifluoroacetate)]
11 | 3.72 µM | CC(C)c1ccccc1-c1ncc2c(NCC3(N(C)C)CCC3)nc(OC[C@@]34CCCN3C[C@H](F)C4)nc2c1F [Example 10, N-((1-(dimethylamino)cyclobutyl)methyl)-8-fluoro-2-(((2R,7aS)-2-fluorotetrahydro-1H-pyrrolizin-7a(5H)-yl)methoxy)-7-(2-isopropylphenyl)pyrido[4,3-d]pyrimidin-4-amine bis(2,2,2-trifluoroacetate)]
12 | 0.098 µM | CN1CCC[C@H]1COc1nc(NCC2(N(C)C)CCC2)c2cnc(-c3cc(O)cc4ccccc34)c(F)c2n1 [Example 11, (S)-4-(4-(((1-(dimethylamino)cyclobutyl)methyl)amino)-8-fluoro-2-((1-methylpyrrolidin-2-yl)methoxy)pyrido[4,3-d]pyrimidin-7-yl)naphthalen-2-ol bis(2,2,2-trifluoroacetate)]
13 | 0.1 µM | Cc1cc2[nH]ncc2c(-c2ncc3c(NCC4(N(C)C)CCC4)nc(OC[C@@]45CCCN4C[C@H](F)C5)nc3c2F)c1Cl [Example 12, 7-(5-chloro-6-methyl-1H-indazol-4-yl)-N-((1-(dimethylamino)cyclobutyl)methyl)-8-fluoro-2-(((2R,7aS)-2-fluorotetrahydro-1H-pyrrolizin-7a(5H)-yl)methoxy)pyrido[4,3-d]pyrimidin-4-amine bis(2,2,2-trifluoroacetate)]
14 | 0.165 µM | Cc1c(Cl)cc2[nH]ncc2c1-c1ncc2c(NCC3(N(C)C)CCC3)nc(OC[C@@]34CCCN3C[C@H](F)C4)nc2c1F [Example 13, 7-(6-chloro-5-methyl-1H-indazol-4-yl)-N-((1-(dimethylamino)cyclobutyl)methyl)-8-fluoro-2-(((2R,7aS)-2-fluorotetrahydro-1H-pyrrolizin-7a(5H)-yl)methoxy)pyrido[4,3-d]pyrimidin-4-amine bis(2,2,2-trifluoroacetate)]
15 | 0.306 µM | CN(C)C1(CNc2nc(OCC34CCCN3CCC4)nc3c(F)c(-c4cccc5cccc(F)c45)ncc23)CCC1 [Example 14, N-((1-(dimethylamino)cyclobutyl)methyl)-8-fluoro-7-(8-fluoronaphthalen-1-yl)-2-((hexahydro-1H-pyrrolizin-7a-yl)methoxy)pyrido[4,3-d]pyrimidin-4-amine]
16 | 3.15 µM | CC(C)(O)CNc1nc(OC[C@@]23CCCN2C[C@H](F)C3)nc2c(F)c(-c3cccc4cccc(Cl)c34)ncc12 [Example 15, 1-((7-(8-chloronaphthalen-1-yl)-8-fluoro-2-(((2R,7aS)-2-fluorotetrahydro-1H-pyrrolizin-7a(5H)-yl)methoxy)pyrido[4,3-d]pyrimidin-4-yl)amino)-2-methylpropan-2-ol]
17 | 0.146 µM | CN(C)C1(CNc2nc(OCC34CCCN3CCC4)nc3c(F)c(-c4cccc(Cl)c4C4CC4)ncc23)CCC1 [Example 16, 7-(3-chloro-2-cyclopropylphenyl)-N-((1-(dimethylamino)cyclobutyl)methyl)-8-fluoro-2-((tetrahydro-1H-pyrrolizin-7a(5H)-yl)methoxy)pyrido[4,3-d]pyrimidin-4-amine]
18 | 0.245 µM | C[C@H]1CNC[C@@H]1Nc1nc(OCC23CCCN2CCC3)nc2c(F)c(-c3cc(O)cc4ccccc34)ncc12 [Example 19, 4-(8-fluoro-4-(((3R,4S)-4-methylpyrrolidin-3-yl)amino)-2-((tetrahydro-1H-pyrrolizin-7a(5H)-yl)methoxy)pyrido[4,3-d]pyrimidin-7-yl)naphthalen-2-ol]
19 | 1.32 µM | CN(C)C1(CNc2nc(OC[C@@]34CCCN3C[C@H](F)C4)nc3c(F)c(-c4cccc5cccc(F)c45)ncc23)CCC1 [Example 22, N-((1-(dimethylamino)cyclobutyl)methyl)-8-fluoro-7-(8-fluoronaphthalen-1-yl)-2-(((2R,7aS)-2-fluorotetrahydro-1H-pyrrolizin-7a(5H)-yl)methoxy)pyrido[4,3-d]pyrimidin-4-amine]
20 | 0.583 µM | CN(C)C1(CNc2nc(OC[C@@]34CCCN3C[C@H](F)C4)nc3c(F)c(-c4cccc5cccc(Cl)c45)ncc23)CCC1 [Example 23, 7-(8-chloronaphthalen-1-yl)-N-((1-(dimethylamino)cyclobutyl)methyl)-8-fluoro-2-(((2R,7aS)-2-fluorotetrahydro-1H-pyrrolizin-7a(5H)-yl)methoxy)pyrido[4,3-d]pyrimidin-4-amine]
21 | 1.88 µM | CC#Cc1cccc2cccc(-c3ncc4c(NCC5(N(C)C)CCC5)nc(OC[C@@]56CCCN5C[C@H](F)C6)nc4c3F)c12 [Example 27, N-((1-(dimethylamino)cyclobutyl)methyl)-8-fluoro-2-(((2R,7aS)-2-fluorotetrahydro-1H-pyrrolizin-7a(5H)-yl)methoxy)-7-(8-(prop-1-yn-1-yl)naphthalen-1-yl)pyrido[4,3-d]pyrimidin-4-amine]
22 | 0.609 µM | CN(CC1(N(C)C)CCC1)c1nc(OC[C@@]23CCCN2C[C@H](F)C3)nc2c(F)c(-c3cc(O)cc4ccccc34)ncc12 [Example 28]
23 | 1.58 µM | CN(C)C1(CNc2nc(OC[C@@]34CCCN3C[C@H](F)C4)nc3c(F)c(-c4cc(O)cc5ccccc45)ncc23)CCCCC1 [Example 30]
